Experimental data published in patent US20260022096A1, “NOVEL SULFONAMIDES AND THEIR USE AS NEUROPROTECTIVE AND/OR NEURORESTORATIVE AGENTS” (GENECODE, priority 2022, published 2026).

These molecules were tested against T1, GFRα1-RET (Homo sapiens, UniProt P56159) (assay: Elk1 reporter-gene (luciferase) assay in cells expressing GFRα1-RET). Details: MG87 murine fibroblasts stably transfected with PathDetect Elk-1, GFRα1 and RET, 6 concentrations, agonist/activator activity.
T1 construct: expressed in transfected cells; host or cells: MG87 murine fibroblasts, stably transfected
T1 sequence (P56159 25-429 limits assumed): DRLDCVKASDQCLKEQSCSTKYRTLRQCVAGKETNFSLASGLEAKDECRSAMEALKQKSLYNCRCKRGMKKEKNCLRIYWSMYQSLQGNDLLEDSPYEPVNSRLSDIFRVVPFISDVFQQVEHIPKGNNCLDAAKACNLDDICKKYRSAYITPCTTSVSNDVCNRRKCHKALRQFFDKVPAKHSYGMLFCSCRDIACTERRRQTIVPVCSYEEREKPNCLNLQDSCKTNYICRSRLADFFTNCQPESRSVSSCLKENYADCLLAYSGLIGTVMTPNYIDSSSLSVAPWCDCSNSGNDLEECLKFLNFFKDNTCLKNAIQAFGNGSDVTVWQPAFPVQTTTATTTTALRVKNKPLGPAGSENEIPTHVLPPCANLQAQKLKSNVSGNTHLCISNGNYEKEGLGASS
Type: cell-based
Method: For ECso determination, a dose-response test was performed using 6 concentrations of each tested compound. Dose-response curves were fitted using the sigmoidal dose-response (variable slope) analysis in GraphPad Prism program (Graph Pad Inc) and ECso of agonist/activator activity was calculated. Dose-response experiments were all performed in duplicate, two times independently.

Which EC50 does the source give for `O=C(c1ccc(F)cc1Cl)N1C[C@H]2CC[C@@H](C1)N2c1cc(S(=O)(=O)N2CCC(c3ccc(F)cc3)CC2)cc(Cl)c1O` [compound 099, (2-chloro-4-fluoro-phenyl)-[(1S,5R)-8-[3-chloro-5-[[4-(4-fluorophenyl)-1-piperidyl]sulfonyl]-2-hydroxy-phenyl]-3,8-diazabicyclo[3.2.1]octan-3-yl]methanone] here?
Its EC50 is < 1000 nM.

`CC(C)NS(=O)(=O)c1cc(Cl)c(O)c(N2[C@@H]3CC[C@H]2CN(C(=O)c2ccc(F)cc2Cl)C3)c1` [compound 100] was tested. Which EC50 did it give?
Its EC50 is < 1000 nM.

`CC1(NS(=O)(=O)c2cc(Cl)c(O)c(N3[C@@H]4CC[C@H]3CN(C(=O)c3ccc(F)cc3Cl)C4)c2)CC1` [compound 101, 3-chloro-5-[(1S,5R)-3-(2-chloro-4-fluoro-benzoyl)-3,8-diazabicyclo[3.2.1]octan-8-yl]-4-hydroxy-N-(1-methylcyclopropyl) benzenesulfonamide] was tested. Which EC50 did it give?
Its EC50 is 1000 to 10000 nM.

With `CC1(NS(=O)(=O)c2cc(Cl)c(O)c(N3[C@@H]4CC[C@H]3CN(C(=O)c3ccc(F)cc3Cl)C4)c2)CCC1` [compound 102, 3-chloro-5-[(1S,5R)-3-(2-chloro-4-fluoro-benzoyl)-3,8-diazabicyclo[3.2.1]octan-8-yl]-4-hydroxy-N-(1-methylcyclobutyl) benzenesulfonamide] as the molecule, how does the EC50 read?
The EC50 was < 1000 nM.

For `CC(C)(C#N)NS(=O)(=O)c1cc(Cl)c(O)c(N2[C@@H]3CC[C@H]2CN(C(=O)c2ccc(F)cc2Cl)C3)c1` [compound 103], which EC50 is on record?
Its EC50 is 1000 to 10000 nM.

Which EC50 does the source give for `CC(C)(NS(=O)(=O)c1cc(Cl)c(O)c(N2[C@@H]3CC[C@H]2CN(C(=O)c2ccc(F)cc2Cl)C3)c1)C(F)(F)F` [compound 105, 3-chloro-5-[(1S,5R)-3-(2-chloro-4-fluoro-benzoyl)-3,8-diazabicyclo[3.2.1]octan-8-yl]-4-hydroxy-N-(2,2,2-trifluoro-1,1-dimethyl-ethyl)benzenesulfonamide] here?
Its EC50 is < 1000 nM.

For `CN(C1(C)COC1)S(=O)(=O)c1cc(Cl)c(O)c(N2[C@@H]3CC[C@H]2CN(C(=O)c2ccc(F)cc2Cl)C3)c1` [compound 106, 3-chloro-5-[(1S,5R)-3-(2-chloro-4-fluoro-benzoyl)-3,8-diazabicyclo[3.2.1]octan-8-yl]-4-hydroxy-N-methyl-N-(3-methyloxetan-3-yl)benzenesulfonamide], which EC50 is on record?
The EC50 was < 1000 nM.

With `CN(C(C)(C)C)S(=O)(=O)c1cc(Cl)c(O)c(N2[C@@H]3CC[C@H]2CN(C(=O)c2ccc(F)cc2Cl)C3)c1` [compound 107] as the molecule, how does the EC50 read?
The EC50 was < 1000 nM.

With `CC1(NS(=O)(=O)c2cc(Cl)c(O)c(N3[C@@H]4CC[C@H]3CN(C(=O)c3ccc(F)cc3Cl)C4)c2)COC1` [compound 108] as the molecule, how does the EC50 read?
The EC50 was 1000 to 10000 nM.

For `CN(C1COC1)S(=O)(=O)c1cc(Cl)c(O)c(N2[C@@H]3CC[C@H]2CN(C(=O)c2ccc(F)cc2Cl)C3)c1` [compound 109, 3-chloro-5-[(1S,5R)-3-(2-chloro-4-fluoro-benzoyl)-3,8-diazabicyclo[3.2.1]octan-8-yl]-4-hydroxy-N-methyl-N-(oxetan-3-yl)benzenesulfonamide], which EC50 is on record?
The EC50 was 1000 to 10000 nM.

`C[C@H]1CN(C(=O)c2ccc(F)cc2Cl)CCN1c1cc(S(=O)(=O)NC(C)(C)C)cc(Cl)c1O` [compound 110, N-tert-butyl-3-chloro-5-[(2S)-4-(2-chloro-4-fluoro-benzoyl)-2-methyl-piperazin-1-yl]-4-hydroxy-benzenesulfonamide] was tested. Which EC50 did it give?
Its EC50 is < 1000 nM.

With `C[C@@H]1CN(C(=O)c2ccc(F)cc2Cl)CCN1c1cc(S(=O)(=O)NC(C)(C)C)cc(Cl)c1O` [compound 111, N-tert-butyl-3-chloro-5-[(2R)-4-(2-chloro-4-fluoro-benzoyl)-2-methyl-piperazin-1-yl]-4-hydroxy-benzenesulfonamide] as the molecule, how does the EC50 read?
Its EC50 is < 1000 nM.

How did the EC50 turn out when `CC(C)(C)NS(=O)(=O)c1cc(Cl)c(OCCO)c(N2[C@@H]3CC[C@H]2CN(C(=O)c2ccc(F)cc2Cl)C3)c1` [compound 112] was run?
Its EC50 is < 1000 nM.

How did the EC50 turn out when `COCCOc1c(Cl)cc(S(=O)(=O)NC(C)(C)C)cc1N1[C@@H]2CC[C@H]1CN(C(=O)c1ccc(F)cc1Cl)C2` [compound 113] was run?
Its EC50 is < 1000 nM.

How did the EC50 turn out when `COc1c(Cl)cc(S(=O)(=O)NC(C)(C)C)cc1N1[C@@H]2CC[C@H]1CN(C(=O)c1ccc(F)cc1Cl)C2` [compound 114, N-tert-butyl-3-chloro-5-[(1S,5R)-3-(2-chloro-4-fluoro-benzoyl)-3,8-diazabicyclo[3.2.1]octan-8-yl]-4-methoxy-benzenesulfonamide] was run?
Its EC50 is < 1000 nM.

For `CCCN(C)S(=O)(=O)c1ccc(Cl)c(N2[C@@H]3CC[C@H]2CN(C(=O)c2ccc(F)cc2Cl)C3)c1` [compound 115, 4-chloro-3-[(1S,5R)-3-(2-chloro-4-fluoro-benzoyl)-3,8-diazabicyclo[3.2.1]octan-8-yl]-N-methyl-N-propyl-benzenesulfonamide], which EC50 is on record?
Its EC50 is < 1000 nM.

`Cc1ccc(S(=O)(=O)N2CCN(CCc3ccc(F)cc3)CC2)cc1N1[C@@H]2CC[C@H]1CN(C(=O)c1ccc(F)cc1Cl)C2` [compound 116, (2-chloro-4-fluoro-phenyl)-[(1S,5R)-8-[5-[4-[2-(4-fluorophenyl)ethyl]piperazin-1-yl]sulfonyl-2-methyl-phenyl]-3,8-diazabicyclo[3.2.1]octan-3-yl]methanone] was tested. Which EC50 did it give?
Its EC50 is < 1000 nM.

With `O=C(c1ccc(F)cc1Cl)N1C[C@H]2CC[C@@H](C1)N2c1cc(S(=O)(=O)N2CCC(c3ccccc3)CC2)cc2c1OCO2` [compound 117, (2-chloro-4-fluoro-phenyl)-[(1S,5R)-8-[6-[(4-phenyl-1-piperidyl)sulfonyl]-1,3-benzodioxol-4-yl]-3,8-diazabicyclo[3.2.1]octan-3-yl]methanone] as the molecule, how does the EC50 read?
The EC50 was < 1000 nM.

How did the EC50 turn out when `O=C(c1ccc(F)cc1Cl)N1C[C@H]2CC[C@@H](C1)N2c1cc(S(=O)(=O)N2CCC(c3ccccc3)CC2)cc2c1OCCO2` [compound 118, (2-chloro-4-fluoro-phenyl)-[(1S,5R)-8-[7-[(4-phenyl-1-piperidyl)sulfonyl]-2,3-dihydro-1,4-benzodioxin-5-yl]-3,8-diazabicyclo[3.2.1]octan-3-yl]methanone] was run?
Its EC50 is < 1000 nM.

Which EC50 does the source give for `CN1CCc2cc(S(=O)(=O)N3CCC(c4ccccc4)CC3)cc(N3[C@@H]4CC[C@H]3CN(C(=O)c3ccc(F)cc3Cl)C4)c21` [compound 119, (2-chloro-4-fluoro-phenyl)-[(1S,5R)-8-[1-methyl-5-[(4-phenyl-1-piperidyl)sulfonyl]indolin-7-yl]-3,8-diazabicyclo[3.2.1]octan-3-yl]methanone] here?
The EC50 was < 1000 nM.

For `CN1CCc2cc(S(=O)(=O)N3CCC(c4ccccc4)CC3)cc(N3[C@@H]4CC[C@H]3CN(C(=O)c3cc(F)c(F)cc3Cl)C4)c21` [compound 120, (2-chloro-4,5-difluoro-phenyl)-[(1S,5R)-8-[1-methyl-5-[(4-phenyl-1-piperidyl)sulfonyl]indolin-7-yl]-3,8-diazabicyclo[3.2.1]octan-3-yl]methanone], which EC50 is on record?
Its EC50 is < 1000 nM.

How did the EC50 turn out when `CN(C)c1ccc(S(=O)(=O)N2CCC(c3ccccc3)CC2)cc1N1[C@@H]2CC[C@H]1CN(C(=O)c1ccc(F)cc1Cl)C2` [compound 121, (2-chloro-4-fluoro-phenyl)-[(1S,5R)-8-[2-(dimethylamino)-5-[(4-phenyl-1-piperidyl)sulfonyl]phenyl]-3,8-diazabicyclo[3.2.1]octan-3-yl]methanone] was run?
The EC50 was < 1000 nM.

`CN(C)c1ccc(S(=O)(=O)N2CCC(c3ccccc3)CC2)cc1N1[C@@H]2CC[C@H]1CN(C(=O)c1cc(F)c(F)cc1Cl)C2` [compound 122, (2-chloro-4,5-difluoro-phenyl)-[(1S,5R)-8-[2-(dimethylamino)-5-[(4-phenyl-1-piperidyl)sulfonyl]phenyl]-3,8-diazabicyclo[3.2.1]octan-3-yl]methanone] was tested. Which EC50 did it give?
The EC50 was < 1000 nM.
